Assay: Biodistribution of the mixture of three free tracers (not formulated as nano-emulsion), comparative
Assay type: in vivo
Conditions: FVB female mouse
Experimental: In the following examples, the radioactivity was counted with the TRiCarb Counter (Ref: Packard, Liquid Scintillation Analyzers; Models 2200CA).
Fluobeam 700 (Fluoptics) is the apparatus with which the whole of the organs from the biodistribution were analyzed in fluorescence as well as the one with which the biodistribution kinetics of the nano-emulsions were established in vivo. This imaging system allows viewing of the fluorescence in spectral bands from 700 to 850 nm for a 650 nm excitation. The apparatus consists of an electric case containing the laser of class 3B, its power supply and an optical head containing the CCD camera.
As a comparison, a mixture of three tracers ([3H]CHE, [14C]CO and DiD) (not formulated as a nano-emulsion) was injected in order to observe the distribution of the tracers in the absence of droplets being used as a distribution carrier.

[1] = 2 h after injection of free tracers (not nano-emulsion)
[2] = 6 h after injection of free tracers (not nano-emulsion)
[3] = 16 h after injection of free tracers (not nano-emulsion)
[4] = 24 h after injection of free tracers (not nano-emulsion)

CCCCCCCCCCCCCCCCCCN1/C(=C/C=C/C=C/C2=[N+](CCCCCCCCCCCCCCCCCC)c3ccccc3C2(C)C)C(C)(C)c2ccccc21.[O-][Cl+3]([O-])([O-])[O-] [DiD, l,r-dioctadécyl-3,3,3′,3′-tetramethylindodicarbocyanine (DiD) perchlorate]
fluorescence intensity, Adrenal glands (MEAN) [1]: 730.45 photons per pixel, reduced to
fluorescence intensity, Brain (MEAN) [1]: 439.56 photons per pixel, reduced to
fluorescence intensity, Fat (MEAN) [1]: 280.30 photons per pixel, reduced to
fluorescence intensity, Heart (MEAN) [1]: 487.37 photons per pixel, reduced to
fluorescence intensity, Intestine (MEAN) [1]: 451.58 photons per pixel, reduced to
fluorescence intensity, Kidney (MEAN) [1]: 862.35 photons per pixel, reduced to
fluorescence intensity, Liver (MEAN) [1]: 2477.20 photons per pixel, reduced to
fluorescence intensity, Lung (MEAN) [1]: 848.08 photons per pixel, reduced to
fluorescence intensity, Muscle (MEAN) [1]: 211.84 photons per pixel, reduced to
fluorescence intensity, Ovary (MEAN) [1]: 954.70 photons per pixel, reduced to
fluorescence intensity, Pancreas (MEAN) [1]: 466.58 photons per pixel, reduced to
fluorescence intensity, Salivary gland (MEAN) [1]: 399.58 photons per pixel, reduced to
fluorescence intensity, Spleen (MEAN) [1]: 1162.07 photons per pixel, reduced to
fluorescence intensity, Uterus (MEAN) [1]: 694.28 photons per pixel, reduced to
fluorescence intensity, Adrenal glands (MEAN) [2]: 208.14 photons per pixel, reduced to
fluorescence intensity, Brain (MEAN) [2]: 116.17 photons per pixel, reduced to
fluorescence intensity, Fat (MEAN) [2]: 234.61 photons per pixel, reduced to
fluorescence intensity, Heart (MEAN) [2]: 346.63 photons per pixel, reduced to
fluorescence intensity, Intestine (MEAN) [2]: 363.09 photons per pixel, reduced to
fluorescence intensity, Kidney (MEAN) [2]: 573.78 photons per pixel, reduced to
fluorescence intensity, Liver (MEAN) [2]: 2293.21 photons per pixel, reduced to
fluorescence intensity, Lung (MEAN) [2]: 433.52 photons per pixel, reduced to
fluorescence intensity, Muscle (MEAN) [2]: 108.34 photons per pixel, reduced to
fluorescence intensity, Ovary (MEAN) [2]: 250.27 photons per pixel, reduced to
fluorescence intensity, Pancreas (MEAN) [2]: 191.73 photons per pixel, reduced to
fluorescence intensity, Salivary gland (MEAN) [2]: 232.98 photons per pixel, reduced to
fluorescence intensity, Spleen (MEAN) [2]: 3224.12 photons per pixel, reduced to
fluorescence intensity, Uterus (MEAN) [2]: 506.03 photons per pixel, reduced to
fluorescence intensity, Adrenal gland (MEAN) [3]: 1683.36 photons per pixel, reduced to
fluorescence intensity, Brain (MEAN) [3]: −24.23 photons per pixel, reduced to
fluorescence intensity, Fat (MEAN) [3]: 295.69 photons per pixel, reduced to
fluorescence intensity, Heart (MEAN) [3]: 186.72 photons per pixel, reduced to
fluorescence intensity, Intestine (MEAN) [3]: 505.69 photons per pixel, reduced to
fluorescence intensity, Kidney (MEAN) [3]: 382.29 photons per pixel, reduced to
fluorescence intensity, Liver (MEAN) [3]: 2954.59 photons per pixel, reduced to
fluorescence intensity, Lung (MEAN) [3]: 370.94 photons per pixel, reduced to
fluorescence intensity, Muscle (MEAN) [3]: 93.88 photons per pixel, reduced to
fluorescence intensity, Ovary (MEAN) [3]: 729.53 photons per pixel, reduced to
fluorescence intensity, Pancreas (MEAN) [3]: 101.87 photons per pixel, reduced to
fluorescence intensity, Salivary gland (MEAN) [3]: 271.01 photons per pixel, reduced to
fluorescence intensity, Spleen (MEAN) [3]: 3403.29 photons per pixel, reduced to
fluorescence intensity, Uterus (MEAN) [3]: 665.40 photons per pixel, reduced to
fluorescence intensity, Adrenal gland (MEAN) [4]: 653.68 photons per pixel, reduced to
fluorescence intensity, Brain (MEAN) [4]: 57.68 photons per pixel, reduced to
fluorescence intensity, Fat (MEAN) [4]: 344.99 photons per pixel, reduced to
fluorescence intensity, Heart (MEAN) [4]: 285.67 photons per pixel, reduced to
fluorescence intensity, Intestine (MEAN) [4]: 354.94 photons per pixel, reduced to
fluorescence intensity, Kidney (MEAN) [4]: 397.90 photons per pixel, reduced to
fluorescence intensity, Liver (MEAN) [4]: 2663.45 photons per pixel, reduced to
fluorescence intensity, Lung (MEAN) [4]: 300.36 photons per pixel, reduced to
fluorescence intensity, Muscle (MEAN) [4]: 289.03 photons per pixel, reduced to
fluorescence intensity, Ovary (MEAN) [4]: 989.32 photons per pixel, reduced to
fluorescence intensity, Pancreas (MEAN) [4]: 158.45 photons per pixel, reduced to
fluorescence intensity, Salivary gland (MEAN) [4]: 187.28 photons per pixel, reduced to
fluorescence intensity, Spleen (MEAN) [4]: 3880.70 photons per pixel, reduced to
fluorescence intensity, Uterus (MEAN) [4]: 636.69 photons per pixel, reduced to
accumulation in the liver and the spleen, tracer DiD alone (Tables 2 to 5 (2 to 24 h), free tracer): Strong accumulation

CCCCCCCCCCCCCCCCO[C@H]1CC[C@@]2(C)C(=CC[C@H]3[C@@H]4CC[C@H]([C@H](C)CCCC(C)C)[C@@]4(C)CC[C@@H]32)C1 [[3H]CHE, cholesteryl hexadecylether]
biodistribution, Adrenal glands (MEAN) [1]: 0.17 % of injected dose per gram of
biodistribution, Brain (MEAN) [1]: 0.00 % of injected dose per gram of
biodistribution, Fat (MEAN) [1]: 0.02 % of injected dose per gram of
biodistribution, Heart (MEAN) [1]: 0.08 % of injected dose per gram of
biodistribution, Intestine (MEAN) [1]: 0.03 % of injected dose per gram of
biodistribution, Kidney (MEAN) [1]: 0.09 % of injected dose per gram of
biodistribution, Liver (MEAN) [1]: 1.76 % of injected dose per gram of
biodistribution, Lung (MEAN) [1]: 29.10 % of injected dose per gram of
biodistribution, Muscle (MEAN) [1]: 0.04 % of injected dose per gram of
biodistribution, Ovary (MEAN) [1]: 0.04 % of injected dose per gram of
biodistribution, Pancreas (MEAN) [1]: 0.05 % of injected dose per gram of
biodistribution, Salivary gland (MEAN) [1]: 0.01 % of injected dose per gram of
biodistribution, Spleen (MEAN) [1]: 1.55 % of injected dose per gram of
biodistribution, Uterus (MEAN) [1]: 0.02 % of injected dose per gram of
biodistribution, Adrenal glands (MEAN) [2]: 0.36 % of injected dose per gram of
biodistribution, Brain (MEAN) [2]: 0.02 % of injected dose per gram of
biodistribution, Fat (MEAN) [2]: 0.05 % of injected dose per gram of
biodistribution, Heart (MEAN) [2]: 0.30 % of injected dose per gram of
biodistribution, Intestine (MEAN) [2]: 0.15 % of injected dose per gram of
biodistribution, Kidney (MEAN) [2]: 0.41 % of injected dose per gram of
biodistribution, Liver (MEAN) [2]: 3.23 % of injected dose per gram of
biodistribution, Lung (MEAN) [2]: 83.99 % of injected dose per gram of
biodistribution, Muscle (MEAN) [2]: 0.03 % of injected dose per gram of
biodistribution, Ovary (MEAN) [2]: 0.07 % of injected dose per gram of
biodistribution, Pancreas (MEAN) [2]: 0.09 % of injected dose per gram of
biodistribution, Salivary gland (MEAN) [2]: 0.09 % of injected dose per gram of
biodistribution, Uterus (MEAN) [2]: 0.04 % of injected dose per gram of
biodistribution, Adrenal gland (MEAN) [3]: 0.47 % of injected dose per gram of
biodistribution, Brain (MEAN) [3]: 0.02 % of injected dose per gram of
biodistribution, Fat (MEAN) [3]: 0.02 % of injected dose per gram of
biodistribution, Heart (MEAN) [3]: 0.35 % of injected dose per gram of
biodistribution, Intestine (MEAN) [3]: 0.13 % of injected dose per gram of
biodistribution, Kidney (MEAN) [3]: 0.53 % of injected dose per gram of
biodistribution, Liver (MEAN) [3]: 6.95 % of injected dose per gram of
biodistribution, Lung (MEAN) [3]: 124.35 % of injected dose per gram of
biodistribution, Muscle (MEAN) [3]: 0.05 % of injected dose per gram of
biodistribution, Ovary (MEAN) [3]: 0.19 % of injected dose per gram of
biodistribution, Pancreas (MEAN) [3]: 0.04 % of injected dose per gram of
biodistribution, Salivary gland (MEAN) [3]: 0.05 % of injected dose per gram of
biodistribution, Spleen (MEAN) [3]: 4.17 % of injected dose per gram of
biodistribution, Uterus (MEAN) [3]: 0.03 % of injected dose per gram of
biodistribution, Adrenal gland (MEAN) [4]: 0.31 % of injected dose per gram of
biodistribution, Brain (MEAN) [4]: 0.03 % of injected dose per gram of
biodistribution, Fat (MEAN) [4]: 1.42 % of injected dose per gram of
biodistribution, Heart (MEAN) [4]: 0.12 % of injected dose per gram of
biodistribution, Intestine (MEAN) [4]: 0.07 % of injected dose per gram of
biodistribution, Kidney (MEAN) [4]: 1.12 % of injected dose per gram of
biodistribution, Liver (MEAN) [4]: 1.12 % of injected dose per gram of
biodistribution, Lung (MEAN) [4]: 6.37 % of injected dose per gram of
biodistribution, Muscle (MEAN) [4]: 0.11 % of injected dose per gram of
biodistribution, Ovary (MEAN) [4]: 0.08 % of injected dose per gram of
biodistribution, Pancreas (MEAN) [4]: 0.03 % of injected dose per gram of
biodistribution, Salivary gland (MEAN) [4]: 0.14 % of injected dose per gram of
biodistribution, Spleen (MEAN) [4]: 10.63 % of injected dose per gram of
biodistribution, Uterus (MEAN) [4]: 0.34 % of injected dose per gram of
accumulation of the free radioactive tracers in the lungs (Tables 2 to 5 (2 to 24 h), free tracers): strong accumulation

Source: patent publication US9707305B2, “Formulas for diagnosing and treating hormone-dependent cancers and cancers of the organs responsible for steroid hormone synthesis” (Commissariat à l'énergie atomique et aux énergies …, priority 2011, dated 2017)
